Data published in patent publication US20120016009A1, “Optimized Methods For Delivery Of DSRNA Targeting The PCSK9 Gene” (priority 2008, published 2012).
In the oligonucleotide strings, read from the 5' end, every base follows the letter of its sugar. An asterisk marks phosphorothioate; unmarked linkages are phosphodiester. Other units and linkages are bracketed, terminal groups are in braces. A string of capitals states the bases alone. d = 2'-deoxy (DNA); m = 2'-O-methyl; r = 2'-OH (RNA); {P} = phosphate

Tests used:
[1] = tested on: PCSK9 mRNA; test: In vitro screening of modified dsRNAs targeted to PCSK9 (Table 2b; cell type not given); assay type: cell-based; settings: for Remaining mRNA in % of controls at siRNA conc. of 30 nM: 30 nM siRNA
Description: For transfection with siRNA, HuH7, HepG2, or HeLa cells were seeded at a density of 2.0×10^4 cells/well in 96-well plates and transfected directly. Transfection of siRNA (30 nM for single dose screen) was carried out with lipofectamine 2000 (Invitrogen GmbH, Karlsruhe, Germany, cat. No. 11668-019) as described by the manufacturer.
24 hours after transfection HuH7 and HepG2 cells were lysed and PCSK9 mRNA levels were quantified with the Quantigene Explore Kit (Genosprectra, Dumbarton Circle Fremont, USA, cat. No. QG-000-02) according to the protocol. PCSK9 mRNA levels were normalized to GAP-DH mRNA. For each siRNA eight individual datapoints were collected. siRNA duplexes unrelated to PCSK9 gene were used as control. The activity of a given PCSK9 specific siRNA duplex was expressed as percent PCSK9 mRNA concentration in treated cells relative to PCSK9 mRNA concentration in cells treated with the control siRNA duplex.
Tables 1b and 2b (and FIG. 6A) summarize the results and provide examples of in vitro screens in different cell lines at different doses. Silencing of PCSK9 transcript was expressed as percentage of remaining transcript at a given dose.

[2] = tested on: PCSK9 mRNA; test: PCSK9 siRNA screening in HepG2 cells (lipofectamine 2000 transfection, PCSK9 mRNA by Quantigene, normalized to GAP-DH); assay type: cell-based, human; settings: for Mean percent remaining mRNA transcript at siRNA concentration/in cell type 30 nM/HepG2: 30 nM siRNA; for Mean percent remaining mRNA transcript at siRNA concentration/in cell type 3 nM/HepG2: 3 nM siRNA
Summary of the method: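 PCSK9 silencing was assessed in HepG2 cells by lipofectamine 2000 siRNA transfection in 96-well plates. Twenty-four hours later, lysates were analyzed with the Quantigene Explore Kit, with PCSK9 signal normalized to GAP-DH. Eight datapoints were collected per siRNA, and remaining transcript was expressed as a percentage of cells treated with an unrelated control siRNA duplex.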

Substance | Mean percent remaining mRNA transcript at siRNA concentration/in cell type 30 nM/HepG2 [2] [%] | Remaining mRNA in % of controls at siRNA conc. of 30 nM [1] [%] | also measured
AD-3511: a derivative of AD-10792; sense SEQ ID NO: 1521, antisense SEQ ID NO: 1522 (sense rGmCmCmUrGrGrArGmUmUmUrAmUmUmCrGrGrArAdT*dT; antisense {P}-mUrUrCrCrGrArAmUrArArArCrUrCmCrArGrGrCdT*dT; further chemistry not fully specified) |  |  | IC50 ([1]; data not shown, test system not given): 0.07 to 0.2 nM
AD-9743: PCSK9 siRNA (sense rAmUrGmCmUrGmUmCmUrGmCmCrGrArGmCmCrGrGdT*dT; antisense rCrCrGrGrCrUrCrGrGmCrArGrAmCrArGmCrArUdT*dT) | 104 |  | 
AD-9744: PCSK9 siRNA (sense rGrArGmCrAmUrGrGrArAmUmCmCmCrGrGmCmCmCdT*dT; antisense rGrGrGrCrCrGrGrGrArUrUrCmCrArUrGrCrUrCdT*dT) | 91 |  | 
AD-9745: PCSK9 siRNA (sense mUmCrArGrGrArGmCmCrGrGrGrAmCrGmUmCrArGdT*dT; antisense rCrUrGrArCrGrUrCrCrCrGrGrCrUrCrCrUrGrAdT*dT) | 56 |  | 
AD-9746: PCSK9 siRNA (sense mCrArGrGrArGmCmCrGrGrGrAmCrGmUmCrArGmCdT*dT; antisense rGrCrUrGrArCrGrUrCrCrCrGrGrCrUrCrCrUrGdT*dT) | 89 |  | 
AD-9747: PCSK9 siRNA (sense mUmCmUrGrGrAmUrGrGmCrAmUmCmUrArGmCmCrAdT*dT; antisense rUrGrGrCmUrArGrArUrGrCmCrArUrCmCrArGrAdT*dT) | 63 |  | 
AD-9748: PCSK9 siRNA (sense mCmUrGmUmCmCmCmUmCmCmUmUrGrArGmCrAmCmCdT*dT; antisense rGrGrUrGrCrUmCrArArGrGrArGrGrGrAmCrArGdT*dT) | 103 |  | 
AD-9749: PCSK9 siRNA (sense rGmUmCrArGmCmUmCmCrArGrGmCrGrGmUmCmCmUdT*dT; antisense rArGrGrArCrCrGrCrCrUrGrGrArGrCrUrGrArCdT*dT) | 105 |  | 
AD-9750: PCSK9 siRNA (sense mCrGmUmCrArGmCmUmCmCrArGrGmCrGrGmUmCmCdT*dT; antisense rGrGrArCrCrGrCrCrUrGrGrArGrCrUrGrArCrGdT*dT) | 96 |  | 
AD-9751: PCSK9 siRNA (sense mCmUrGrGmUrGrGrArGrGmUrGmUrAmUmCmUmCmCdT*dT; antisense rGrGrArGrAmUrAmCrArCrCrUrCmCrArCmCrArGdT*dT) | 60 |  | 
AD-9752: PCSK9 siRNA (sense mUrGrArArGrAmUrAmUmUmUrAmUmUmCmUrGrGrGdT*dT; antisense rCrCmCrArGrArAmUrArArAmUrArUrCrUrUmCrAdT*dT) | 28 |  | Mean percent remaining mRNA transcript at siRNA concentration/in cell type 3 nM/HepG2 [2]: 33%
AD-9753: PCSK9 siRNA (sense rArGrArGrAmCmUrGrAmUmCmCrAmCmUmUmCmUmCdT*dT; antisense rGrArGrArArGrUrGrGrArUmCrArGrUrCrUrCrUdT*dT) | 127 |  | 
AD-9754: PCSK9 siRNA (sense mUmUmCmUmCmUrGmCmCrArArArGrAmUrGmUmCrAdT*dT; antisense rUrGrAmCrArUrCrUrUrUrGrGmCrArGrArGrArAdT*dT) | 89 |  | 
AD-9756: PCSK9 siRNA (sense rGrGrGmCrArGrGrGmUmCrAmUrGrGmUmCrAmCmCdT*dT; antisense rGrGrUrGrArCmCrArUrGrArCrCrCrUrGrCrCrCdT*dT) | 63 |  | 
AD-9757: PCSK9 siRNA (sense mCmUmCmUrGmCmCrArArArGrAmUrGmUmCrAmUmCdT*dT; antisense rGrArUrGrAmCrArUrCrUrUrUrGrGmCrArGrArGdT*dT) | 78 |  | 
AD-9758: PCSK9 siRNA (sense mCrArAmCmUmUmUrGrGmCmCrGmCmUrGmUrGmUrGdT*dT; antisense mCrAmCrAmCrArGrCrGrGrCmCrArArArGrUrUrGdT*dT) | 96 |  | 

Substance | Mean percent remaining mRNA transcript at siRNA concentration/in cell type 30 nM/HepG2 [2] [%] | Remaining mRNA in % of controls at siRNA conc. of 30 nM [1] [%] | also measured
AD-9759: PCSK9 siRNA (sense mUrGrGmUmCrAmCmCrGmCmUrGmCmCrGrGmCrArAdT*dT; antisense rUrUrGrCrCrGrGmCrArGrCrGrGrUrGrArCmCrAdT*dT) | 111 |  | 
AD-9760: PCSK9 siRNA (sense mCmUmCmUrGmUmUrGmCmCmUmUmUmUmUrAmCrArGdT*dT; antisense rCrUrGmUrArArArArArGrGmCrArAmCrArGrArGdT*dT) | 14 |  | Mean percent remaining mRNA transcript at siRNA concentration/in cell type 3 nM/HepG2 [2]: 27%
AD-9763: PCSK9 siRNA (sense rGrArGrGrGmCrArGrGrGmUmCrAmUrGrGmUmCrAdT*dT; antisense rUrGrArCmCrArUrGrArCrCrCrUrGrCrCrCrUrCdT*dT) | 79 |  | 
AD-9764: PCSK9 siRNA (sense mCmUrGrGrArGmUmUmUrAmUmUmCrGrGrArArArAdT*dT; antisense rUrUrUrUrCrCrGrArAmUrArArArCrUrCmCrArGdT*dT) | 112 |  | 
AD-9765: PCSK9 siRNA (sense rGmUrGmCmUrGrArGrGmCmCrAmCrGrArGrGmUmCdT*dT; antisense rGrArCrCrUrCrGrUrGrGrCrCrUmCrArGmCrArCdT*dT) | 82 |  | Mean percent remaining mRNA transcript at siRNA concentration/in cell type 3 nM/HepG2 [2]: 74%
AD-12038: modified dsRNA, SEQ ID NO:1311/1312 (chain 1 rGmCmCmUrGrGrArGmUmUmUrAmUmUmCrGrGrArAdT*dT; chain 2 mUrUrCrCrGrArArUrArArArCrUrCrCrArGrGrCdT*dT) |  | 13 | 
AD-12039: modified dsRNA, SEQ ID NO:1313/1314 (chain 1 rGmCmCmUrGrGrArGmUmUmUrAmUmUmCrGrGrArAdT*dT; chain 2 rUmUrCrCrGrArArUrArArArCrUrCrCrArGrGrCdT*dT) |  | 29 | 
AD-12040: modified dsRNA, SEQ ID NO:1315/1316 (chain 1 rGmCmCmUrGrGrArGmUmUmUrAmUmUmCrGrGrArAdT*dT; chain 2 rUrUmCrCrGrArArUrArArArCrUrCrCrArGrGrCdT*dT) |  | 10 | 
AD-12041: modified dsRNA, SEQ ID NO:1317/1318 (chain 1 rGmCmCmUrGrGrArGmUmUmUrAmUmUmCrGrGrArAdT*dT; chain 2 rUrUrCmCrGrArArUrArArArCrUrCrCrArGrGrCdT*dT) |  | 11 | 
AD-12042: modified dsRNA, SEQ ID NO:1319/1320 (chain 1 rGrCrCrUrGrGrArGrUrUrUrArUrUrCrGrGrArAdT*dT; chain 2 mUrUrCrCrGrArArUrArArArCrUrCrCrArGrGrCdT*dT) |  | 12 | 
AD-12043: modified dsRNA, SEQ ID NO:1321/1322 (chain 1 rGrCrCrUrGrGrArGrUrUrUrArUrUrCrGrGrArAdT*dT; chain 2 rUmUrCrCrGrArArUrArArArCrUrCrCrArGrGrCdT*dT) |  | 13 | 
AD-12044: modified dsRNA, SEQ ID NO:1323/1324 (chain 1 rGrCrCrUrGrGrArGrUrUrUrArUrUrCrGrGrArAdT*dT; chain 2 rUrUmCrCrGrArArUrArArArCrUrCrCrArGrGrCdT*dT) |  | 7 | 
AD-12045: modified dsRNA, SEQ ID NO:1325/1326 (chain 1 rGrCrCrUrGrGrArGrUrUrUrArUrUrCrGrGrArAdT*dT; chain 2 rUrUrCmCrGrArArUrArArArCrUrCrCrArGrGrCdT*dT) |  | 8 | 
AD-12046: modified dsRNA, SEQ ID NO:1327/1328 (chain 1 rGmCmCmUrGrGrArGmUmUmUrAmUmUmCrGrGrArA; chain 2 rUrUrCrCrGrArArUrArArArCrUrCrCrArGrGrC*mC*mU) |  | 13 | 
AD-12047: modified dsRNA, SEQ ID NO:1329/1330 (chain 1 rGmCmCmUrGrGrArGmUmUmUrAmUmUmCrGrGrArArA; chain 2 rUrUrUrCrCrGrArArUrArArArCrUrCrCrArGrGrC*mC*mU) |  | 17 | 
AD-12048: modified dsRNA, SEQ ID NO:1331/1332 (chain 1 rGmCmCmUrGrGrArGmUmUmUrAmUmUmCrGrGrArArArA; chain 2 rUrUrUrUrCrCrGrArArUrArArArCrUrCrCrArGrGrC*mC*mU) |  | 43 | 
